Data published in US5561126A, “4-oxa-1-azabicyclo [3,2,0] heptan-7-one derivatives as antitumor agents” (Taiho Pharmaceutical Co., Ltd., priority 1992, dated 1996).
In brackets after ≈: the same amount, converted by molar mass.

What was measured:
KB cells = assay: In Vitro KB Cell Cytotoxicity Assay (crystal violet); format: cell-based; settings: Homo sapiens, 72 h, read-out: Cytotoxicity TD50 KB
Protocol: KB cells were cultivated in Eagles minimum essential medium supplemented with 10% calf serum and incubated at 37° C. in a humidified 5% CO2 atmosphere to prepare a cell stock. Cells were counted using a neubauer hemocytometer and seeded in 96 well plates at 100 μl of 3×10^4 cells/ml and cultured for one day. […] Control wells were identical except that test compound was absent. These were cultured for three days. […] Then stained with 100 μl of 0.05% crystal violet for 15 minutes, washed with water and dried. The wells were eluted with 100 μl of 0.05M NaH2 PO4 /ethanol (1:1 v/v) and read at OD540 on a multiscan spectrophotometer. TD50 values were calculated using the following formula.

L1210 cells = assay: cells; format: cell-based; settings: Mus musculus, L1210, 72 h, read-out: Cytotoxicity TD50 L1210
Protocol: In vitro L1210 cell cytotoxicity assay was done by the method of microculture tetrazolium assay (Alley et al., Cancer Research, 48, 589-601 (1988)). L1210 cells were cultivated in RPMI 1640 medium supplemented with 10% fetal calf serum and […] of 2-mercaptoethanol at 37° C. in humidified 5% CO2 atmosphere to prepare a cell stock. Cells were counted using neubauer hemocytometer and seed in 96 well plates at 100 μl of 0.5×10^4 cells per ml. The test compounds were diluted and 100 μl of the solution was added in triplicate wells to give the final concentration of 10, 5, 1, 0.5 and 0.1 μg/ml. Control wells were identical except that the test compound was absent. These were cultured for three days. Results were assayed using the microculture tetrazolium assay briefly. 50 μl of MTT formazoan working solution (1:5 v/v in culture medium) was added to each well and cultures were incubated at 37° C. for 4 hrs. Culture plates were centrifuged at low speed for 5 minutes. All but 10-20 μl of culture medium supernatant was removed by slow aspiration and replaced by 50 μl of DMSO. The formazoan was dissolved by shaking on a mechanical shaker and read at OD540 on a multiscan spectrophotometer. TD50 values were calculated using the formula: [formula] to give interpolative values between two dilutions.

Sarcoma 180 = assay: In Vivo Antitumor Activity Against Sarcoma 180; settings: for Mortality in 12 days: i.p., days 1, 5 and 9
Protocol: Sarcoma 180, 5×10^6 cells were inoculated by S.C. to male ICR mice (6 weeks old) on day 0. Drugs were administered on days 1, 5 and 9. Mice were killed and tumor weight was measured on day 12 after transplantation. The percentage inhibition of tumor growth was calculated from the mean tumor weight of the treated group compared with that of the control group. Number of mice used in each group was between 6 to 10.

[1] = Mus musculus, Sarcoma-180, ip, 288 h, read-out: % Inhibition of tumor growth

| Structure (SMILES) | CC50 (KB cells) | further results |
| --- | --- | --- |
| CCCC(=O)OC[C@H]1CN2C(=O)C[C@@H]2O1 (racemic) [compound 5, (3RS, 5SR)-3-Butyryloxymethyl-4-oxa-1-azabicyclo [3,2,0]heptan-7-one] | 0.3 µg/mL (≈ 1.41 µM) | CC50 (L1210 cells): 0.45 µg/mL (≈ 2.11 µM) |
| CCCCCCCC(=O)OC[C@H]1CN2C(=O)C[C@@H]2O1 (racemic) [compound 7, (3RS, 5SR)-3-(n-Octanoyloxymethyl)-4-oxa-1-azabicyclo[3,2,0] heptan-7-one] | 0.1 µg/mL (≈ 0.371 µM) | CC50 (L1210 cells): 0.34 µg/mL (≈ 1.26 µM) |
| CC(C)C(=O)OC[C@H]1CN2C(=O)C[C@@H]2O1 (racemic) [compound 9, (3RS, 5SR)-3-(2-Methylpropionyloxymethyl)-4-oxa-1-azabicyclo [3,2,0]heptan-7-one] | 0.4 µg/mL (≈ 1.88 µM) | – |
| C#CCCC(=O)OC[C@H]1CN2C(=O)C[C@@H]2O1 (racemic) [compound 17, (3RS, 5SR)-3-(4-Pentynoyloxymethyl)-4-oxa-1-azabicyclo [3,2,0]heptan-7-one] | 0.27 µg/mL (≈ 1.21 µM) | – |
| O=C(OC[C@H]1CN2C(=O)C[C@@H]2O1)c1ccccc1 (racemic) [compound 18, (3RS, 5SR)-3-Benzoyloxymethyl-4-oxa-1-azabicyclo[3,2,0]heptan-7-one] | 5 µg/mL (≈ 20.2 µM) | – |
| O=C([O-])c1ccccc1C(=O)OC[C@H]1CN2C(=O)C[C@@H]2O1.[Na+] (racemic) [compound 25, Sodium (3RS, 5SR)-2-[(4-oxa-1-azabicyclo [3,2,0]heptan-7-one-3-yl)methyloxycarbonyl]benzoate] | 1.5 µg/mL | Mortality in 12 days (Sarcoma 180; 100 mg/kg/day): 2/6; inhibition in vivo at 100 mg/kg (Sarcoma 180; [1]): 44.1% |
| O=C(CC(O)C(=O)OC[C@H]1CN2C(=O)C[C@@H]2O1)OC[C@H]1CN2C(=O)C[C@@H]2O1 (mixture of isomers) [compound 28, Bis [(3RS, 5SR)-(4-oxa-1-azabicyclo[3,2,0]heptan-7-one-3-yl)-methyl]-2-hydroxysuccinate] | 0.3 µg/mL (≈ 0.781 µM) | – |
| O=C(OC[C@H]1CN2C(=O)C[C@@H]2O1)C(O)C(O)C(=O)OC[C@H]1CN2C(=O)C[C@@H]2O1 (mixture of isomers) [compound 29, Bis [(3RS, 5SR)-(4-oxa-1-azabicyclo[3,2,0]heptan-7-one-3-yl)-methyl]-2,3-dihydroxysuccinate] | 0.3 µg/mL (≈ 0.749 µM) | – |
| O=C(OC[C@H]1CN2C(=O)C[C@@H]2O1)c1ccc(F)cc1 (racemic) [compound 31, (3RS, 5SR)-3-(4-Fluorobenzoyloxymethyl)-4-oxa-1-azabicyclo [3,2,0]heptan-7-one] | 0.4 µg/mL (≈ 1.51 µM) | Mortality in 12 days (Sarcoma 180; 12.5 mg/kg/day): 0/7; Mortality in 12 days (Sarcoma 180; 25 mg/kg/day): 0/7; inhibition in vivo at 12.5 mg/kg (Sarcoma 180; [1]): 53.2%; inhibition in vivo at 25 mg/kg (Sarcoma 180; [1]): 69.4% |
| O=C(OC[C@H]1CN2C(=O)C[C@@H]2O1)c1cc(F)c(F)cc1F (racemic) [compound 32, (3RS, 5SR)-3-(2,4,5-Trifluorobenzoyloxymethyl)-4-oxa-1-azabicyclo[3,2,0]heptan-7-one] | 0.3 µg/mL (≈ 0.996 µM) | – |
| Nc1ccc(C(=O)OC[C@H]2CN3C(=O)C[C@@H]3O2)cc1 (racemic) [compound 34, (3RS, 5SR)-3-(4-Aminobenzoyloxymethyl)-4-oxa-1-azabicyclo [3,2,0]heptan-7-one] | 0.4 µg/mL (≈ 1.53 µM) | – |
| COc1cc(C(=O)OC[C@H]2CN3C(=O)C[C@@H]3O2)cc(OC)c1O (racemic) [compound 35, (3RS, 5SR)-3-(4-Hydroxy-3,5-dimethoxybenzoyloxymethyl)-4-oxa-1-azabicyclo [3,2,0]heptan-7-one] | 0.8 µg/mL (≈ 2.47 µM) | – |
| O=C1C[C@@H]2O[C@@H](CSCc3ccccc3)CN12 (racemic) [compound 41, (3RS,5SR)-3-Benzylthiomethyl-4-oxa-1-azabicyclo[3,2,0]heptan-7-one] | 5 µg/mL (≈ 20.1 µM) | Mortality in 12 days (Sarcoma 180; 6.25 mg/kg/day): 0/6; inhibition in vivo at 6.25 mg/kg (Sarcoma 180; [1]): 17.1% |
| O=C1C[C@@H]2O[C@@H](CS(=O)(=O)Cc3ccccc3)CN12 (racemic) [compound 43, (3RS, 5SR)-3-Benzylsulfonylmethyl-4-oxa-1-azabicyclo[3,2,0]heptan-7-one] | 0.5 µg/mL (≈ 1.78 µM) | Mortality in 12 days (Sarcoma 180; 12.5 mg/kg/day): 0/6; inhibition in vivo at 12.5 mg/kg (Sarcoma 180; [1]): 19.5% |
| O=C1C[C@@H]2O[C@@H](CSc3ccccc3)CN12 (racemic) [compound 44, (3RS, 5SR)-3-Phenylthiomethyl-4-oxa-1-azabicyclo[3,2,0]heptan-7-one] | 3 µg/mL (≈ 12.7 µM) | – |
| O=C1C[C@@H]2O[C@@H](CS(=O)(=O)c3ccccc3)CN12 (racemic) [compound 46, (3RS, 5SR)-3-Phenylsulfonylmethyl-4-oxa-1-azabicyclo[3,2,0]heptan-7-one] | 2 µg/mL (≈ 7.48 µM) | – |
| O=C1C[C@@H]2O[C@H](CCO)CN12 (racemic) [compound 50, (3RS, 5SR)-3-Hydroxyethyl-4-oxa-1-azabicyclo[3,2,0]heptan-7-one] | 0.7 µg/mL (≈ 4.45 µM) | Mortality in 12 days (Sarcoma 180; 50 mg/kg/day): 0/6; inhibition in vivo at 50 mg/kg (Sarcoma 180; [1]): 65.3% |

| Structure (SMILES) | CC50 (KB cells) | further results |
| --- | --- | --- |
| Cc1ccc(S(=O)(=O)C[C@H]2CN3C(=O)C[C@@H]3O2)cc1 (racemic) [compound 51, (3RS, 5SR)-3-(4-Methylbenzenesulfonyl)methyl-4-oxa-1-azabicyclo[3,2,0]heptan-7-one] | 1 µg/mL (≈ 3.55 µM) | – |
| CC(C)CC(=O)OC[C@H]1CN2C(=O)C[C@@H]2O1 (relative stereo) [compound 10, (3RS, 5SR)-3-Methylbutyryloxymethyl-4-oxa-1-azabicyclo [3,2,0]heptan-7-one] | 0.25 µg/mL (≈ 1.1 µM) | – |
| CC(C)CCC(=O)OC[C@H]1CN2C(=O)C[C@@H]2O1 (relative stereo) [compound 11] | 0.4 µg/mL (≈ 1.66 µM) | – |
| CCCCC(C)C(=O)OC[C@H]1CN2C(=O)C[C@@H]2O1 (relative stereo) [compound 12] | 0.4 µg/mL (≈ 1.57 µM) | – |
| Cc1cc(C)c(C(=O)OC[C@H]2CN3C(=O)C[C@@H]3O2)c(C)c1 (relative stereo) [compound 19] | 2 µg/mL (≈ 6.91 µM) | – |
| COc1ccc(C(=O)OC[C@H]2CN3C(=O)C[C@@H]3O2)cc1 (relative stereo) [compound 20] | 0.6 µg/mL (≈ 2.16 µM) | Mortality in 12 days (Sarcoma 180; 3.13 mg/kg/day): 0/7; Mortality in 12 days (Sarcoma 180; 6.25 mg/kg/day): 0/7; Mortality in 12 days (Sarcoma 180; 12.5 mg/kg/day): 0/7; Mortality in 12 days (Sarcoma 180; 25 mg/kg/day): 0/7; inhibition in vivo at 3.13 mg/kg (Sarcoma 180; [1]): 60%; inhibition in vivo at 6.25 mg/kg (Sarcoma 180; [1]): 68.6%; inhibition in vivo at 12.5 mg/kg (Sarcoma 180; [1]): 59.1%; inhibition in vivo at 25 mg/kg (Sarcoma 180; [1]): 74.1% |
| O=C(OC[C@H]1CN2C(=O)C[C@@H]2O1)c1ccc(O)cc1 (relative stereo) [compound 21] | 2.2 µg/mL (≈ 8.36 µM) | Mortality in 12 days (Sarcoma 180; 50 mg/kg/day): 0/6; inhibition in vivo at 50 mg/kg (Sarcoma 180; [1]): 48.3% |
| O=C(OC[C@H]1CN2C(=O)C[C@@H]2O1)c1ccc(O)c(O)c1 (relative stereo) [compound 22] | 2.5 µg/mL (≈ 8.95 µM) | – |
| O=C(O)COc1ccc(C(=O)OC[C@H]2CN3C(=O)C[C@@H]3O2)cc1 (relative stereo) [compound 23, Sodium (3RS, 5SR)-4-(4-oxa-1-azabicyclo [3,2,0]heptan-7-one-3-methyloxycarbonyl)phenoxyacetate] | 8.7 µg/mL | Mortality in 12 days (Sarcoma 180; 50 mg/kg/day): 0/6; inhibition in vivo at 50 mg/kg (Sarcoma 180; [1]): 23.7% |
| O=C(O)C1CCCCC1C(=O)OC[C@H]1CN2C(=O)C[C@@H]2O1 (relative stereo) [compound 24, Sodium (3RS, 5SR)-2-(4-oxa-1-azabicyclo [3,2,0]heptan-7-one-3-methyloxycarbonyl)cyclohexyl-2-carboxylate] | 0.7 µg/mL | – |
| O=C(O)CCC(=O)OC[C@H]1CN2C(=O)C[C@@H]2O1 (relative stereo) [compound 26] | 9.8 µg/mL (≈ 40.3 µM) | – |
| O=C(O)/C=C/C(=O)OC[C@H]1CN2C(=O)C[C@@H]2O1 (relative stereo) [compound 27, Sodium [(3RS, 5SR)-(4-oxa-1-azabicyclo[3,2,0]heptan-7-one-3-yl)methyl]fumarate] | 2.4 µg/mL | – |
| O=C(/C=C\C(=O)OC[C@H]1CN2C(=O)C[C@@H]2O1)OC[C@H]1CN2C(=O)C[C@@H]2O1 (relative stereo) [compound 30, Bis [(3RS, 5SR)-(4-oxa-1-azabicyclo[3,2,0]heptan-7-one-3-yl)-methyl]maleate] | 0.05 µg/mL (≈ 0.136 µM) | Mortality in 12 days (Sarcoma 180; 12.5 mg/kg/day): 0/6; Mortality in 12 days (Sarcoma 180; 25 mg/kg/day): 0/6; inhibition in vivo at 12.5 mg/kg (Sarcoma 180; [1]): 34%; inhibition in vivo at 25 mg/kg (Sarcoma 180; [1]): 76.9% |
| N#Cc1ccc(C(=O)OC[C@H]2CN3C(=O)C[C@@H]3O2)cc1 (relative stereo) [compound 33, (3RS, 5SR)-3-(4-Cyanobenzoyloxyymethyl)-4-oxa-1-azabicyclo [3,2,0]heptan-7-one] | 0.3 µg/mL (≈ 1.1 µM) | – |
| COc1ccc(COC[C@H]2CN3C(=O)C[C@@H]3O2)cc1OC [39A] | 0.56 µg/mL (≈ 1.91 µM) | – |
| COc1ccc(COC[C@H]2CN3C(=O)C[C@H]3O2)cc1OC [39B, (3R,5R)-3-(3,4-Dimethoxybenzyloxymethyl)-4-oxa-1-azabicyclo[3,2,0] heptan-7-one] | 0.57 µg/mL (≈ 1.94 µM) | – |
